According to patent US7220740B2, “1,4-diazabicyclo[3.2.2]nonabenzoxazole, -benzothiazole and benzimidazole derivatives, preparation and therapeutic use thereof” (Sanofi-aventis, priority 2000, dated 2007):

melting point: 158 to 160 °C
SMILES: O=[N+]([O-])c1ccc2oc(N3CCN4CCC3CC4)nc2c1
